Bounds are passed on as bounds.

Data set [1] addresses EGFR (Homo sapiens, UniProt P00533). Put plainly: EGFR kinase inhibition, KinaseProfiler radiometric protein kinase assay (Eurofins). In kind it is biochemical. Details: purchased Eurofins Pharma Discovery Services UK Limited (contract assay, KinaseProfiler). The conditions noted are these: 40 min room temperature. The method, then: In vitro potency of selected compound was defined against human BTK, EGFR, and ErbB2 kinases using Kinase Profiler radiometric protein kinase assays performed at Eurofins Pharma Discovery Services UK Limited.
Each kinase is diluted in buffer and all compounds were prepared to 50x final assay concentration in 100% DMSO. This working stock of the compound was added to the assay well as the first component in the reaction, followed by the remaining components as detailed in the assay protocol listed above. The reaction was initiated by the addition of the MgATP mix. […] (specific activity approx. 500 cpm/pmol, concentration as required) and variable test article concentrations. […] The reaction was stopped by the addition of 3% phosphoric acid solution. 10 μL of the reaction is then spotted onto a P30 filtermat and washed three times for 5 minutes in 75 mM phosphoric acid and once in methanol prior to drying and scintillation counting. In addition positive control wells contain all components of the reaction, except the compound of interest; however, DMSO (at a final concentration of 2%) were included in these wells to control for solvent effects as well as blank wells contain all components of the reaction, with a reference inhibitor replacing the compound of interest. This abolishes kinase activity and establishes the base-line (0% kinase activity remaining). […]

Data set [2] can be described thus: in vitro. To be noted: human, liver microsomes. (In general: Liver microsomes are a subcellular fraction often used to study metabolism.)
Experimental: Intrinsic liver microsomal stability was determined using cryopreserved human liver microsomes. […] Following centrifugation 100 μL of the supernatant was transferred to a 96-well plate and analyzed by LC-MS/MS using test-article specific methods. Controls included absence of microsomes or co-factors or use of heat-denatured microsomes. Intrinsic clearance was calculated using the formula: (In(% Time 0/% Time 1)/T1−T0)×Volume of incubation/protein in the incubation.

Chain of EGFR (P00533 25-1210): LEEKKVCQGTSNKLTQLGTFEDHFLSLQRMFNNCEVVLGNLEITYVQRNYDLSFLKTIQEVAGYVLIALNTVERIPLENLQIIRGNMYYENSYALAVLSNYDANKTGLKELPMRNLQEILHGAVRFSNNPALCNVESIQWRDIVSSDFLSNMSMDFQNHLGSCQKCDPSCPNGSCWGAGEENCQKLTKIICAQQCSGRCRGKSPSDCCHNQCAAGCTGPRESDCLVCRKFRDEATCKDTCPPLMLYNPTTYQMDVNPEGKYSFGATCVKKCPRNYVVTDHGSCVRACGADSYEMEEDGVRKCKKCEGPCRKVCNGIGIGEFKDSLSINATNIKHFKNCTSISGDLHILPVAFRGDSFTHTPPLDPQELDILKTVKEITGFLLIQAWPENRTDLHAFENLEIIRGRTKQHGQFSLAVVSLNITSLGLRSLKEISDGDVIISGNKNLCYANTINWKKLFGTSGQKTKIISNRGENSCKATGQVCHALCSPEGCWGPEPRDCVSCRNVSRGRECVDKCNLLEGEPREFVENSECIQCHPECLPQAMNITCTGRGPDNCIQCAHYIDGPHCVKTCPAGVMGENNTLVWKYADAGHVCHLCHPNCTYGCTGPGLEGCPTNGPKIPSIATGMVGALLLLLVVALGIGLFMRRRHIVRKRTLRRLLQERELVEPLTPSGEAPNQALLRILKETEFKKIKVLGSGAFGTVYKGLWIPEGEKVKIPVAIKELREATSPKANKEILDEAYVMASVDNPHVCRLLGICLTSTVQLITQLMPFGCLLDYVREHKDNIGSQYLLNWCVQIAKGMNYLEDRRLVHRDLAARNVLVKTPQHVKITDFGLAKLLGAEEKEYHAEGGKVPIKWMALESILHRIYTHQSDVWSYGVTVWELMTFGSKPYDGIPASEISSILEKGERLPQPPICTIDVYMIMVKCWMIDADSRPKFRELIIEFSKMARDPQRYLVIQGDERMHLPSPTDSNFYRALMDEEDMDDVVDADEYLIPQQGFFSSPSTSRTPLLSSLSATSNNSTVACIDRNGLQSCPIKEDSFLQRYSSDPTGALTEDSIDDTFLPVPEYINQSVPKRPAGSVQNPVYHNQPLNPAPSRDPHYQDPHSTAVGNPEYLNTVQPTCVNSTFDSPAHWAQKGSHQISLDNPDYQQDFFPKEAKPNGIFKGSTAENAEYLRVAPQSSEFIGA

`CC#CC(=O)N[C@H]1C[C@@H](n2nc(-c3ccc(Oc4ccccc4)cc3)c3c(N)ncnc32)C1` [Compound 1] had a half-inhibitory concentration (IC50) in data set [1] greater than 1 µM. This compound also yielded an intrinsic clearance (microsomal CLint) at 1 μM in data set [2] of 34.9 µL/min/mg.

On to `C=CC(=O)N[C@H]1C[C@@H](n2nc(-c3ccc(Oc4ccccc4)cc3)c3c(N)ncnc32)C1` [Compound 2], for which, in data set [1], the IC50 is greater than 1 µM. In data set [2], this compound registered an intrinsic metabolic clearance (microsomal CLint) at 1 μM of 15.6 µL/min/mg.

A word on the IC50: it is the point on the concentration scale where inhibition reaches its midpoint. A low value points to greater potency in that assay. As usually defined, the microsomal CLint is the rate of metabolic loss divided by the concentration. A low value points to greater metabolic stability.

The values are drawn from patent publication US20200247808A1, “Heterocyclic Tec-Family Kinase Inhibitors” (GB005, Inc., priority 2015, published 2020).
